Results: patent publication US20220160686A1, “MACROCYCLIC AZOLOPYRIDINE DERIVATIVES AS EED AND PRC2 MODULATORS” (Fulcrum Therapeutics, Inc., priority 2019, published 2022)

Target: T1, biotinylated AVI-tagged EED (76-441) (Homo sapiens, UniProt O75530)
T1 construct: GST (N, cleaved yes); made in house; host or cells: E. coli BL21(DE3), co-expressed with pGro7
Assay: EED binding SPR assay
Details: 1:1 binding model; read-out: KD, equilibrium dissociation constant as measured by surface plasmon resonance (SPR)
Outline: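 Biotinylated AVI-EED(76-441) from E. coli was captured on Biotin CAPture chips (2200–2400 RU) in 10 mM HEPES pH 7.4, 150 mM NaCl, 0.05% Tween 20 and 2% DMSO. Compounds were run at 7 concentrations (3-fold dilutions) with 90 s association and 180 s dissociation, chip at 25 °C. Data were fitted to a 1:1 binding model.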

T1 sequence (O75530 76-441 limits assumed): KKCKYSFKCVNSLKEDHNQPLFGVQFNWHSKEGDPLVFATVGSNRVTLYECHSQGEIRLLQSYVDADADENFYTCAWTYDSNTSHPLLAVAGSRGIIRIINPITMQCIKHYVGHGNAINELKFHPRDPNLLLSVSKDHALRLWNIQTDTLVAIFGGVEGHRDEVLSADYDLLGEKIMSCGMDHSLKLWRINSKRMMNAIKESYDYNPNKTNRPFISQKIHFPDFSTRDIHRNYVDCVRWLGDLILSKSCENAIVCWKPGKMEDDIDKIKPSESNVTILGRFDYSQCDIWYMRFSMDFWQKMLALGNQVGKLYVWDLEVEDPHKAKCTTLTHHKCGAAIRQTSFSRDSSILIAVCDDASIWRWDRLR

SMILES | Kd [nM]
Cc1ncccc1-c1cc2c(n3cnnc13)NCc1cccc3c1[C@H](CO3)CO2 [Compound 1, (15R)-10-(2-methyl-3-pyridyl)-13,17-dioxa-3,5,7,8-tetrazapentacyclo[13.6.1.04,12.05,9.018,22] docosa-1(22),4(12),6,8,10,18,20-heptaene] | < 2.5
CC(=O)N1CCC(c2cc3c(n4cnnc24)NCc2cccc4c2[C@@H](CO4)CO3)CC1 [Compound 3, (S)-1-(4-(7a,8,13,14-tetrahydro-7H-[1,2,4]triazolo[4′,3′:1,6]pyrido[3,2-b]benzofuro[4,3-fg][1,4]oxazonin-4-yl)piperidin-1-yl)ethan-1-one] | < 2.5
CC(=O)N1CCC(c2cc3c(n4cnnc24)NCc2c(F)cccc2CCO3)CC1 [Compound 4, 1-(4-(12-fluoro-7,8,13,14-tetrahydro-[1,2,4]triazolo[4′,3′:1,6]pyrido[3,2-b]benzo[f][1,4]oxazonin-4-yl)piperidin-1-yl)ethan-1-one] | 10 to 50
Cc1ncccc1-c1cc2c(n3cnnc13)NCc1c(F)cccc1CCO2 [Compound 5, 12-fluoro-4-(2-methylpyridin-3-yl)-7,8,13,14-tetrahydro-[1,2,4]triazolo[4′,3′:1,6]pyrido[3,2-b]benzo[f][1,4]oxazonine] | 5 to 10
Cc1ncccc1-c1cc2c(n3cnnc13)NCc1c(F)cccc1COC2 [Compound 6, 12-fluoro-4-(2-methylpyridin-3-yl)-6,8,13,14-tetrahydro-[1,2,4]triazolo[4′,3′:1,6]pyrido[3,2-c]benzo[g][1,5]oxazonine] | > 50
Cn1cc(Cc2cc3c(n4cnnc24)NCc2cccc4c2[C@@H](CO4)CO3)cn1 [Compound 7, (S)-4-((1-methyl-1H-pyrazol-4-yl)methyl)-7a,8,13,14-tetrahydro-7H-[1,2,4]triazolo[4′,3′:1,6]pyrido[3,2-b]benzofuro[4,3-fg][1,4]oxazonine] | 10 to 50
Cn1cc(Cc2cc3c(n4cnnc24)NCc2c(F)ccc4c2[C@@H](CO4)CO3)cn1 [Compound 10, (S)-12-fluoro-4-((1-methyl-1H-pyrazol-4-yl)methyl)-7a,8,13,14-tetrahydro-7H-[1,2,4]triazolo[4′,3′:1,6]pyrido[3,2-b]benzofuro[4,3-fg][1,4]oxazonine] | 5 to 10
c1cc2c3c(c1)OC[C@H]3COc1ccc3nncn3c1NC2 [Compound 11, (S)-7a,8,13,14-tetrahydro-7H-[1,2,4]triazolo[4′,3′:1,6]pyrido[3,2-b]benzofuro[4,3-fg][1,4]oxazonine] | > 50
Fc1ccc2c3c1CNc1c(cc(C4COC4)c4nncn14)OC[C@@H]3CO2 [Compound 12, (S)-12-fluoro-4-(oxetan-3-yl)-7a,8,13,14-tetrahydro-7H-[1,2,4]triazolo[4′,3′:1,6]pyrido[3,2-b]benzofuro[4,3-fg][1,4]oxazonine] | 2.5 to 5
Cc1ncc(-c2cc3c(n4cnnc24)NCc2c(F)ccc4c2[C@@H](CO4)CO3)c(C)n1 [Compound 13, (S)-4-(2,4-dimethylpyrimidin-5-yl)-12-fluoro-7a,8,13,14-tetrahydro-7H-[1,2,4]triazolo[4′,3′:1,6]pyrido[3,2-b]benzofuro[4,3-fg][1,4]oxazonine] | < 2.5
Cc1ncc(-c2cc3c(n4cnnc24)NCc2c(F)cccc2CCO3)c(C)n1 [Compound 14, 4-(2,4-dimethylpyrimidin-5-yl)-12-fluoro-7,8,13,14-tetrahydro-[1,2,4]triazolo[4′,3′:1,6]pyrido[3,2-b]benzo[f][1,4]oxazonine] | 10 to 50
Cc1cn(-c2cc3c(n4cnnc24)NCc2c(F)ccc4c2[C@@H](CO4)CO3)cn1 [Compound 15, (S)-12-fluoro-4-(4-methyl-1H-imidazol-1-yl)-7a,8,13,14-tetrahydro-7H-[1,2,4]triazolo[4′,3′:1,6]pyrido[3,2-b]benzofuro[4,3-fg][1,4]oxazonine] | < 2.5
COC(=O)N1CCC(c2cc3c(n4cnnc24)NCc2c(F)ccc4c2C(CO4)CO3)CC1 [Compound 16, methyl (S)-4-(12-fluoro-7a,8,13,14-tetrahydro-7H-[1,2,4]triazolo[4′,3′:1,6]pyrido[3,2-b]benzofuro[4,3-fg][1,4]oxazonin-4-yl)piperidine-1-carboxylate] | < 2.5
Fc1cncnc1-c1cc2c(n3cnnc13)NCc1c(F)ccc3c1[C@@H](CO3)CO2 [Compound 164, (S)-12-fluoro-4-(5-fluoropyrimidin-4-yl)-7a,8,13,14-tetrahydro-7H-[1,2,4]triazolo[4′,3′:1,6]pyrido[3,2-b]benzofuro[4,3-fg][1,4]oxazonine] | < 2.5
Fc1ccc2c3c1CNc1c(cc(Br)c4nncn14)OC[C@@H]3CO2 [Compound 165, (S)-4-bromo-12-fluoro-7a,8,13,14-tetrahydro-7H-[1,2,4]triazolo[4′,3′:1,6]pyrido[3,2-b]benzofuro[4,3-fg][1,4]oxazonine] | 10 to 50
Cn1nc(OC(F)F)cc1-c1cc2c(n3cnnc13)NCc1c(F)ccc3c1[C@@H](CO3)CO2 [Compound 167, (S)-4-(3-(difluoromethoxy)-1-methyl-1H-pyrazol-5-yl)-12-fluoro-7a,8,13,14-tetrahydro-7H-[1,2,4]triazolo[4′,3′:1,6]pyrido[3,2-b]benzofuro[4,3-fg][1,4]oxazonine] | < 2.5
Cn1nc(F)cc1-c1cc2c(n3cnnc13)NCc1c(F)ccc3c1[C@@H](CO3)CO2 [Compound 168, (S)-12-fluoro-4-(3-fluoro-1-methyl-1H-pyrazol-5-yl)-7a,8,13,14-tetrahydro-7H-[1,2,4]triazolo[4′,3′:1,6]pyrido[3,2-b]benzofuro[4,3-fg][1,4]oxazonine] | < 2.5
Cn1nc(C(C)(C)C#N)cc1-c1cc2c(n3cnnc13)NCc1c(F)ccc3c1[C@@H](CO3)CO2 [Compound 169, (S)-2-(5-(12-fluoro-7a,8,13,14-tetrahydro-7H-[1,2,4]triazolo[4′,3′:1,6]pyrido[3,2-b]benzofuro[4,3-fg][1,4]oxazonin-4-yl)-1-methyl-1H-pyrazol-3-yl)-2-methylpropanenitrile] | < 2.5
Cn1nccc1-c1cc2c(n3cc(C#N)nc13)NCc1c(F)ccc3c1[C@@H](CO3)CO2 [Compound 172, (S)-5-fluoro-12-(1-methyl-1H-pyrazol-5-yl)-6,7,15,15a-tetrahydro-1H-benzofuro[4,3-fg]imidazo[r,2′:1,6]pyrido[3,2-b][1,4]oxazonine-10-carbonitrile] | < 2.5
Cn1nccc1-c1cc2c(n3cc(C(N)=O)nc13)NCc1c(F)ccc3c1[C@@H](CO3)CO2 [Compound 175, (S)-5-fluoro-12-(1-methyl-1H-pyrazol-5-yl)-6,7,15,15a-tetrahydro-1H-benzofuro[4,3-fg]imidazo[r,2′:1,6]pyrido[3,2-b][1,4]oxazonine-10-carboxamide] | < 2.5
Cc1ncccc1-c1cc2c(n3cc(C(N)=O)nc13)NCc1c(F)ccc3c1[C@@H](CO3)CO2 [Compound 176, (S)-5-fluoro-12-(2-methylpyridin-3-yl)-6,7,15,15a-tetrahydro-1H-benzofuro[4,3-fg]imidazo[r,2′:1,6]pyrido[3,2-b][1,4]oxazonine-10-carboxamide] | 10 to 50
Cc1ncccc1-c1cc2c(n3cc(C#N)nc13)NCc1c(F)ccc3c1[C@@H](CO3)CO2 [Compound 186, (S)-5-fluoro-12-(2-methylpyridin-3-yl)-6,7,15,15a-tetrahydro-1H-benzofuro[4,3-fg]imidazo[1′,2′:1,6]pyrido[3,2-b][1,4]oxazonine-10-carbonitrile] | < 2.5
Cc1ncoc1-c1cc2c(n3cnnc13)NCc1c(F)ccc3c1[C@@H](CO3)CO2 [Compound 189, (S)-12-fluoro-4-(4-methyloxazol-5-yl)-7a,8,13,14-tetrahydro-7H-[1,2,4]triazolo[4′,3′:1,6]pyrido[3,2-b]benzofuro[4,3-fg][1,4]oxazonine] | < 2.5
Cn1nccc1-c1cc2c(n3cnnc13)NCc1c(F)ccc3c1C(CO3)CO2 (centres unmarked) [Example 17] | < 2.5
COc1ncc(-c2cc3c(n4cnnc24)NCc2c(F)ccc4c2[C@H](CO4)CO3)cn1 [Example 30] | < 2.5
CS(=O)(=O)c1ccc(-c2cc3c(n4cnnc24)NCc2c(F)ccc4c2C(CO4)CO3)cc1 (centres unmarked) [Example 36] | < 2.5
CN(CC(F)(F)F)C(=O)c1cc2c(n3cnnc13)NCc1c(F)ccc3c1C(CO3)CO2 (centres unmarked) [Example 38] | 2.5 to 5
Cc1cc(C#N)ccc1-c1cc2c(n3cnnc13)NCc1c(F)ccc3c1[C@H](CO3)CO2 [Example 49] | < 2.5
Cn1nc(C(F)(F)F)cc1-c1cc2c(n3cnnc13)NCc1c(F)ccc3c1[C@H](CO3)CO2 [Example 115] | < 2.5
